According to patent US4178380A, “Benzopyrancarboxamides” (Shell Oil Company, priority 1978, dated 1979):

Tests used:
swine adipose tissue = test: inhibition of lipogenesis (incorporation of radioactive glucose into lipid) in pig adipose tissue slices; format: cell-based, pig (swine); conditions: Sus scrofa, glucose-U-14C, 100 micrograms per milliliter, 37° C., 2 hours, vs control, read-out: Percent Inhibition of lipogenesis
From the text: (§1) The manner in which they cause this effect is not known with certainty; it is believed that they interfere with the synthesis of fatty acids in the tissues. Their effectiveness for this purpose has been ascertained by immersing samples of mammalian liver or adipose tissue in a liquid medium containing radioactive glucose and the test chemical for a period of time, then isolating the lipid from the treated tissue and determining the incorporation of the radioactive carbon into the lipid by means of scintillation counting techniques. These tests were conducted with both liver and adipose tissues, because in some animals the primary site of lipogenesis appears to be liver tissue, while in others it appears to be adipose tissue. The test animals were pigs, sheep, rabbits, cats and dogs.
Described in more detail, the tests were conducted according to the following general procedure:
Tissue slices (200 milligrams for liver; 150 milligrams for adipose tissue) were incubated, at 37° C. for 2 hours with shaking in 3 milliliters of Krebs-Ringer bicarbonate solution containing one-half the normal calcium ion concentration, 60 micromoles of glucose, 0.5 micro-Curie of glucose-U-^14 C, 300 microunits of insulin, and 5% dimethyl sulfoxide (DMSO). The test compounds were added as a solution or a suspension in DMSO and were present at a concentration of 100 micrograms per milliliter of the incubation mixture.
The incubation was terminated by addition of 0.25 milliliter of 1 N sulfuric acid. The incubation mixture was extracted with a total of 25 milliliters of chloroform:methanol (2:1, v/v). The extracts were washed according to Folch et al. (J. Biol. Chem., 226, 497-509, (1957)), air dried, and counted in a liquid scintillation counter with 15 milliliters of counting fluid (two parts toluene containing 0.4% w/v New England Nuclear Omnifluor: 1 part Triton X-100). The tests were conducted in triplicate and were accompanied by control tests in which all ingredients,proportions and conditions were the same except that no test compound was included. From the data obtained was calculated the percent inhibition of lipid synthesis by the test compound in each case.
Compound 2 was tested with respect to all of the animals. The other six compounds were tested only with respect to the pig.
From these and other tests, it was established that in pigs there is little lipogenic activity in the liver tissue. From these and other tests, it also has been established that swine adipose tissue utilizes glucose for lipogenesis, and to be the major site of fatty acid synthesis. The data obtained from the tests using adipose tissue and glucose are set out in Table 1, as the percent inhibition of lipogenesis compared to the results obtained in the control tests wherein only the test compound was omitted.

sheep liver = test: inhibition of glucose incorporation into lipids in sheep liver slices; format: cell-based; conditions: 100 micrograms per milliliter, 2 hours
From the text: as §1
(§2) Described in more detail, the tests were conducted according to the following general procedure: […]
(§3) The incubation was terminated by addition of 0.25 milliliter of 1 N sulfuric acid. […] The extracts were washed according to Folch et al. (J. Biol. Chem., 226, 497-509, (1957)), air dried, and counted in a liquid scintillation counter with 15 milliliters of counting fluid (two parts toluene containing 0.4% w/v New England Nuclear Omnifluor: 1 part Triton X-100). […] From the data obtained was calculated the percent inhibition of lipid synthesis by the test compound in each case. […]

sheep adipose tissue = test: inhibition of glucose incorporation into lipids in sheep adipose tissue slices; format: cell-based; conditions: 100 micrograms per milliliter, 2 hours
From the text: as §1, §2, §3

rabbit liver = test: inhibition of glucose incorporation in rabbit liver slices; format: cell-based; conditions: 100 micrograms per milliliter, 2 hours
From the text: as §1, §2, §3

rabbit adipose tissue = test: inhibition of glucose incorporation in rabbit adipose tissue slices; format: cell-based; conditions: 100 micrograms per milliliter, 2 hours
From the text: as §1, §2, §3

cat liver = test: inhibition of glucose utilization in cat liver slices; format: cell-based; conditions: 100 micrograms per milliliter, 2 hours
From the text: as §1, §2, §3

cat adipose tissue = test: inhibition of glucose utilization in cat adipose tissue slices; format: cell-based; conditions: 100 micrograms per milliliter, 2 hours, result in words
From the text: as §1, §2, §3

dog adipose tissue = test: inhibition of glucose utilization in dog adipose tissue slices; format: cell-based; conditions: 100 micrograms per milliliter, 2 hours
From the text: as §1, §2, §3

[1] = test system: lipogenesis in swine adipose tissue; test: in vivo test of inhibition of lipogenesis in swine, compound in feed, adipose tissue biopsy samples; set-up: species or system pig (swine); conditions: young, growing pigs, in feed approximately 50 milligrams per kilogram per day for seven days
Experimental: The effect of compound 2 on inhibition of lipogenesis in swine was confirmed by an in vivo test in which Compound 2 was included in the feed given to young, growing pigs for seven days, at a dosage of approximately 50 milligrams of Compound 2 per kilogram of the pig's body weight per day. Adipose tissue biopsy samples were taken at days 0, 6, 7 and 13 (one week off the drug) and the effect of the test compound on lipogenesis was determined using tissue slices prepared from the biopsy samples, by the procedure used in the in vitro tests.

| SMILES | inhibition at 100 µg/mL (swine adipose tissue) [%] | further results |
| --- | --- | --- |
| C=CCNC(=O)C1CCc2cc(C3CCCCC3)ccc2O1 (stereo not drawn) [Compound 5, 6-Cyclohexyl-3,4-dihydro-N-(2-propenyl)-2H-1-benzopyran-2-carboxamide] | 40 | – |
| C=CCNC(=O)C1CCc2cc(Cl)ccc2O1 (stereo not drawn) [Compound 1, 6-Chloro-3,4-dihydro-N-(2-propenyl)-2H-1-benzopyran-2-carboxamide] | 59 | – |
| C=CCNC(=O)[C@@H]1C[C@H](O)c2cc(Cl)ccc2O1 (relative stereo) [Compound 7, 6-Chloro-4-hydroxy-N-(2-propenyl)-2H-1-benzopyran-2-carboxamide (cis)] | 55 | – |
| C=CCNC(=O)C1COc2ccccc2C1 (stereo not drawn) [Compound 2, 3,4-Dihydro-N-(2-propenyl)-2H-1-benzopyran-3-carboxamide] | 83 | inhibition of glucose incorporation in the liver (sheep liver): 32%; inhibition of glucose incorporation in adipose tissue (sheep adipose tissue): 36%; inhibition of glucose incorporation into liver (rabbit liver): 9%; inhibition of glucose incorporation in adipose tissue (rabbit adipose tissue): 22%; inhibition of glucose utilization in the liver (cat liver): 26%; inhibition of glucose utilization in adipose tissue (cat adipose tissue): did not inhibit glucose utilization; inhibition of glucose utilization in adipose tissue (dog adipose tissue): 73%; symptom of toxicity [1]: No symptom of toxicity due to the test compound was noted; effect on lipogenesis in vivo ([1]; day 13 (one week off the drug)): significantly reduced lipogenesis |
| C=CCNC(=O)C1CCc2ccccc2O1 (stereo not drawn) [Compound 3, 3,4-Dihydro-N-(2-propenyl)-2H-1-benzopyran-2-carboxamide] | 72 | – |
| C=CCNC(=O)C1CCc2cc(C)ccc2O1 (stereo not drawn) [Compound 9, 3,4-Dihydro-6-methyl-N-(2-propenyl)-2H-1-benzopyran-2-carboxamide] | 70 | – |
| C=CCNC(=O)C1CCc2cc(Oc3ccccc3)ccc2O1 (stereo not drawn) [Compound 8, 3,4-Dihydro-6-phenoxy-N-(2-propenyl)-2H-1-benzopyran-2-carboxamide] | 64 | – |
| C=CCNC(=O)C1CCc2cc(-c3ccccc3)ccc2O1 (stereo not drawn) [Compound 4, 3,4-Dihydro-6-phenyl-N-(2-propenyl)-2H-1-benzopyran-2-carboxamide] | 76 | – |
| C=CCNC(=O)C1COc2ccc(Cl)cc2C1 (stereo not drawn) [Compound 6, 6-Chloro-3,4-dihydro-N-(2-propenyl)-2H-1-benzopyran-3-carboxamide] | 67 | – |
